Measured values reported in patent publication US12384800B2, “Antitumoral compounds” (priority 2017, dated 2025).

Columns and labels:
[1] = MTMD (Maximum Tolerated Multiple Dose) determination, iv weekly x 3; type: in vivo; conditions: mice; iv/Q7d × 3
From the text: Female CD-1 or Athymic Nude-Fox1 nu/nu mice (Envigo) were utilized for all experiments. […] Animals were acclimated for five days prior to being individually tattoo-identified. Animal protocols were reviewed and approved according to the regional Institutional Animal Care and Use Committees.
Mice were randomly allocated into experimental groups and intravenously administered, once for the MTD (Maximum Tolerated Dose) determination or one administration a week during three consecutive weeks, for the MTMD (Maximum Tolerated Multiple Dose) determination study. The animals were administered with white formulation or with compound dissolved in the experimental formulation at different concentrations. The volume administered was always […]. Once administered, animals were monitored for clinical signs of systemic toxicity, changes in body weight and mortality up to 14 days after the administration.

HT1080 tumors = test: Human fibrosarcoma xenograft, total diameter (tumor + leg)
MDA-MB-231 tumors = test: Human breast xenograft, tumor volume
Procedure: (§1) Female athymic nu/nu mice (Harlan Laboratories Models, S.L. Barcelona, Spain or Envigo, Spain) were utilized for all experiments. Animal were housed in individually ventilated cages Sealsafe® Plus, Techniplast S.P.A.), up to ten per cage on a 12-hour light-dark cycle at 21-23° C. and 40-60% humidity. […] Animals were acclimated for at least 5 days prior to tumor implantation with a tumor cell suspension.
MDA-MB-231 cells were maintained in vitro at 37° C. with 5% CO2 in Dulbecco's Modified Eagle's Medium (Sigma-Aldrich, Co). Culture cells were passaged every 3 to 5 days upon reaching confluence.
(§2) Treatment tolerability was assessed by monitoring body weight evolution, clinical signs of systemic toxicity, as well as evidences of local damage in the injection site.
(§3) In Xenograft Studies with Other Cell Lines: • Tumor volume was calculated using the equation (a·b^2)/2, where a: length (longest diameter) and b: width (shortest diameter) were measured in mm by using digital caliper (Fowler Sylvac, S235PAT).
(§4) Treatments producing >20% lethality and/or 20% net body weight loss were considered toxic.

HGC27 tumors = test: Human gastric xenograft, tumor volume
Procedure: as §1
HGC27 cells were maintained in vitro at 37° C. with 5% CO2 in Iscove's Modified Dulbecco's Medium (Sigma Aldrich, Co). Culture cells were passage every 3 to 5 days on reaching confluence. Each animal was subcutaneously implanted (on the right flank using 26G needle and a 1 cc syringe) at 4-6 weeks of age with 5×10^6 HGC-27 cells suspended in 0.05 mL of a solution consisting of 50% Matrigel® (Corning Incorporated Life Sciences), 50% medium without serum or antibiotics.
as §2, §3, §4

H460 tumors = test: Human lung (NSCLC) xenograft, tumor volume
Procedure: as §1
H460 cells were maintained in vitro at 37° C. with 5% CO2 in Dulbecco's Modified Eagle's Medium (Sigma-Aldrich, Co). Culture cells were passaged every 3 to 5 days upon reaching confluence. Each animal was subcutaneously implanted (on the right flank using 26G needle and a 1 cc syringe) at 4-6 weeks of age with 5×10^6 H460 cells suspended in 0.05 mL of a solution consisting of 50% Matrigel® (Corning Incorporated Life Sciences) and 50% medium without serum or antibiotics.
as §2, §3, §4
Tables and figures summarize the data obtained from complete experimental groups, i.e. those groups keeping the initial number of animals, n=8-10.

A2780 tumors = test: Human ovarian xenograft, tumor volume
Procedure: as §1
Culture cells were passaged every 3 to 5 days upon reaching confluence. Each animal was subcutaneously implanted (on the right flank using 26G needle and a 1 cc syringe) at 4-6 weeks of age with 10×10^6 A2780 cells suspended in 0.05 mL of a solution consisting of 50% Matrigel® (Corning Incorporated Life Sciences) and 50% medium without serum or antibiotics.
as §2, §3, §4

[2] = Day 2.0, iv Days 0, 7 and 14, compound C 3.0 mg/kg, 4-S […], 12-S […]
[3] = Day 5.0, iv Days 0, 7 and 14, compound C 3.0 mg/kg, 4-S […], 12-S […]
[4] = Day 7.0, iv Days 0, 7 and 14, compound C 3.0 mg/kg, 4-S […], 12-S […]
[5] = Day 9.0, iv Days 0, 7 and 14, compound C 3.0 mg/kg, 4-S […], 12-S […]
[6] = Day 12.0, iv Days 0, 7 and 14, compound C 3.0 mg/kg, 4-S […], 12-S […]
[7] = Day 14.0, iv Days 0, 7 and 14, compound C 3.0 mg/kg, 4-S […], 12-S […]
[8] = Day 16.0, iv Days 0, 7 and 14, compound C 3.0 mg/kg, 4-S […], 12-S […]
[9] = Day 19.0, iv Days 0, 7 and 14, compound C 3.0 mg/kg, 4-S […], 12-S […]
[10] = Day 21.0, iv Days 0, 7 and 14, compound C 3.0 mg/kg, 4-S […], 12-S […]
[11] = Day 23.0, iv Days 0, 7 and 14, compound C 3.0 mg/kg, 4-S […], 12-S […]

COc1ccc2oc3c(c2c1)CCN[C@]31CS[C@@H]2c3c(OC(C)=O)c(C)c4c(c3[C@H](COC1=O)N1[C@@H]2[C@H]2c3c(cc(C)c(OC)c3O)C[C@@H]([C@@H]1O)N2C)OCO4 [Compound 35]
MTMD [1]: 0.25 mg/kg

COc1c(C)cc2c(c1O)[C@@H]1[C@@H]3[C@@H]4SC[C@]5(N[C@H](CN)Cc6c5[nH]c5ccccc65)C(=O)OC[C@@H](c5c6c(c(C)c(OC(C)=O)c54)OCO6)N3[C@@H](O)[C@H](C2)N1C [Compound 12-S]
Total diameter (tumor + leg) (HT1080 tumors; [2]): 8.2 mm | Total diameter (tumor + leg) (HT1080 tumors; [3]): 8.6 mm | Total diameter (tumor + leg) (HT1080 tumors; [4]): 9.5 mm | Total diameter (tumor + leg) (HT1080 tumors; [5]): 10.0 mm | Total diameter (tumor + leg) (HT1080 tumors; [6]): 11.2 mm | Total diameter (tumor + leg) (HT1080 tumors; [7]): 11.7 mm | Total diameter (tumor + leg) (HT1080 tumors; [8]): 12.7 mm | Total diameter (tumor + leg) (HT1080 tumors; [9]): 13.5 mm | Total diameter (tumor + leg) (HT1080 tumors; [10]): 14.4 mm | Total diameter (tumor + leg) (HT1080 tumors; [11]): 16.5 mm | Median Tumor Volume (MDA-MB-231 tumors; [2]): 229.9 mm^3 | Median Tumor Volume (MDA-MB-231 tumors; [3]): 290.5 mm^3 | Median Tumor Volume (MDA-MB-231 tumors; [4]): 398.2 mm^3 | Median Tumor Volume (MDA-MB-231 tumors; [5]): 508.9 mm^3 | Median Tumor Volume (MDA-MB-231 tumors; [6]): 602.5 mm^3 | Median Tumor Volume (MDA-MB-231 tumors; [7]): 751.0 mm^3 | Median Tumor Volume (MDA-MB-231 tumors; [8]): 977.7 mm^3 | Median Tumor Volume (MDA-MB-231 tumors; [9]): 1252.6 mm^3 | Median Tumor Volume (MDA-MB-231 tumors; [10]): 1560.7 mm^3 | Median Tumor Volume (MDA-MB-231 tumors; [11]): 2005.9 mm^3 | Median Tumor Volume (MDA-MB-231 tumors; Day 26.0, iv Days 0, 7 and 14, compound C 3.0 mg/kg, 4-S […], 12-S […]): 2066.2 mm^3 | Median Tumor Volume (HGC27 tumors; [2]): 411.9 mm^3 | Median Tumor Volume (HGC27 tumors; [3]): 834.1 mm^3 | Median Tumor Volume (HGC27 tumors; [4]): 1176.6 mm^3 | Median Tumor Volume (HGC27 tumors; [5]): 1531.6 mm^3 | Median Tumor Volume (HGC27 tumors; [6]): 2030.2 mm^3 | Median Tumor Volume (H460 tumors; [2]): 460.5 mm^3 | Median Tumor Volume (H460 tumors; [3]): 922.4 mm^3 | Median Tumor Volume (H460 tumors; [4]): 1252.1 mm^3 | Median Tumor Volume (H460 tumors; [5]): 1409.4 mm^3 | Median Tumor Volume (H460 tumors; [6]): 1531.7 mm^3 | Median Tumor Volume (A2780 tumors; [2]): 262.1 mm^3 | Median Tumor Volume (A2780 tumors; [3]): 628.6 mm^3 | Median Tumor Volume (A2780 tumors; [4]): 976.3 mm^3 | Median Tumor Volume (A2780 tumors; [5]): 1387.5 mm^3 | Median Tumor Volume (A2780 tumors; [6]): 1666.0 mm^3

COc1c(C)cc2c(c1O)[C@@H]1[C@@H]3[C@@H]4SC[C@]5(N[C@H](CO)Cc6c5oc5ccccc65)C(=O)OC[C@@H](c5c6c(c(C)c(OC(C)=O)c54)OCO6)N3[C@@H](O)[C@H](C2)N1C [Compound 39-S]
Total diameter (tumor + leg) (HT1080 tumors; Day 2): 7.9 mm | Total diameter (tumor + leg) (HT1080 tumors; Day 5): 6.4 mm | Total diameter (tumor + leg) (HT1080 tumors; Day 7): 6.8 mm | Total diameter (tumor + leg) (HT1080 tumors; Day 9): 6.9 mm | Total diameter (tumor + leg) (HT1080 tumors; Day 12): 6.6 mm | Total diameter (tumor + leg) (HT1080 tumors; Day 14): 6.4 mm | Total diameter (tumor + leg) (HT1080 tumors; Day 16): 6.8 mm | Total diameter (tumor + leg) (HT1080 tumors; Day 19): 7.0 mm | Total diameter (tumor + leg) (HT1080 tumors; Day 21): 7.0 mm | Total diameter (tumor + leg) (HT1080 tumors; Day 23): 8.5 mm | Total diameter (tumor + leg) (HT1080 tumors; Day 27): 10.8 mm | Total diameter (tumor + leg) (HT1080 tumors; Day 33): 14.3 mm | Total diameter (tumor + leg) (HT1080 tumors; Day 35): 15.3 mm | Total diameter (tumor + leg) (HT1080 tumors; Day 37): 18.0 mm | Median Tumor Volume (MDA-MB-231 tumors; Day 2): 209.3 mm^3 | Median Tumor Volume (MDA-MB-231 tumors; Day 5): 290.9 mm^3 | Median Tumor Volume (MDA-MB-231 tumors; Day 7): 301.8 mm^3 | Median Tumor Volume (MDA-MB-231 tumors; Day 9): 300.8 mm^3 | Median Tumor Volume (MDA-MB-231 tumors; Day 12): 278.7 mm^3 | Median Tumor Volume (MDA-MB-231 tumors; Day 14): 249.7 mm^3 | Median Tumor Volume (MDA-MB-231 tumors; Day 16): 243.6 mm^3 | Median Tumor Volume (MDA-MB-231 tumors; Day 19): 248.3 mm^3 | Median Tumor Volume (MDA-MB-231 tumors; Day 21): 250.0 mm^3 | Median Tumor Volume (MDA-MB-231 tumors; Day 23): 260.3 mm^3 | Median Tumor Volume (MDA-MB-231 tumors; Day 26): 304.9 mm^3 | Median Tumor Volume (MDA-MB-231 tumors; Day 28): 337.1 mm^3 | Median Tumor Volume (MDA-MB-231 tumors; Day 30): 451.3 mm^3 | Median Tumor Volume (MDA-MB-231 tumors; Day 33): 584.1 mm^3 | Median Tumor Volume (MDA-MB-231 tumors; Day 35): 683.4 mm^3 | Median Tumor Volume (MDA-MB-231 tumors; Day 37): 784.7 mm^3 | Median Tumor Volume (MDA-MB-231 tumors; Day 40): 937.4 mm^3 | Median Tumor Volume (MDA-MB-231 tumors; Day 42): 1060.5 mm^3 | Median Tumor Volume (MDA-MB-231 tumors; Day 44): 1170.5 mm^3 | Median Tumor Volume (MDA-MB-231 tumors; Day 47): 1112.9 mm^3 | Median Tumor Volume (MDA-MB-231 tumors; Day 49): 1138.6 mm^3 | Median Tumor Volume (MDA-MB-231 tumors; Day 51): 1283.2 mm^3 | Median Tumor Volume (MDA-MB-231 tumors; Day 54): 1415.1 mm^3 | Median Tumor Volume (MDA-MB-231 tumors; Day 56): 1518.7 mm^3 | Median Tumor Volume (MDA-MB-231 tumors; Day 58): 1728.5 mm^3 | Median Tumor Volume (MDA-MB-231 tumors; Day 61): 2017.9 mm^3 | Median Tumor Volume (HGC27 tumors; Day 2): 356.3 mm^3 | Median Tumor Volume (HGC27 tumors; Day 5): 469.7 mm^3 | Median Tumor Volume (HGC27 tumors; Day 7): 467.8 mm^3 | Median Tumor Volume (HGC27 tumors; Day 9): 575.2 mm^3 | Median Tumor Volume (HGC27 tumors; Day 12): 611.1 mm^3 | Median Tumor Volume (HGC27 tumors; Day 14): 637.3 mm^3 | Median Tumor Volume (HGC27 tumors; Day 16): 690.4 mm^3 | Median Tumor Volume (HGC27 tumors; Day 19): 701.8 mm^3 | Median Tumor Volume (HGC27 tumors; Day 21): 697.4 mm^3 | Median Tumor Volume (HGC27 tumors; Day 23): 715.5 mm^3 | Median Tumor Volume (HGC27 tumors; Day 26): 898.1 mm^3 | Median Tumor Volume (HGC27 tumors; Day 28): 1163.4 mm^3 | Median Tumor Volume (HGC27 tumors; Day 30): 1409.3 mm^3 | Median Tumor Volume (HGC27 tumors; Day 33): 1450.5 mm^3 | Median Tumor Volume (HGC27 tumors; Day 35): 1708.5 mm^3 | Median Tumor Volume (HGC27 tumors; Day 37): 1804.4 mm^3 | Median Tumor Volume (HGC27 tumors; Day 40): 2075.2 mm^3 | Median Tumor Volume (H460 tumors; Day 2): 314.4 mm^3 | Median Tumor Volume (H460 tumors; Day 5): 584.1 mm^3 | Median Tumor Volume (H460 tumors; Day 7): 831.2 mm^3 | Median Tumor Volume (H460 tumors; Day 9): 841.0 mm^3 | Median Tumor Volume (H460 tumors; Day 12): 1008.0 mm^3 | Median Tumor Volume (H460 tumors; Day 14): 1309.8 mm^3 | Median Tumor Volume (H460 tumors; Day 16): 1470.0 mm^3 | Median Tumor Volume (H460 tumors; Day 19): 2025.0 mm^3 | Median Tumor Volume (A2780 tumors; Day 2): 206.5 mm^3 | Median Tumor Volume (A2780 tumors; Day 5): 163.4 mm^3 | Median Tumor Volume (A2780 tumors; Day 7): 298.6 mm^3 | Median Tumor Volume (A2780 tumors; Day 9): 317.4 mm^3 | Median Tumor Volume (A2780 tumors; Day 12): 378.2 mm^3 | Median Tumor Volume (A2780 tumors; Day 14): 668.5 mm^3 | Median Tumor Volume (A2780 tumors; Day 16): 853.5 mm^3 | Median Tumor Volume (A2780 tumors; Day 19): 1415.5 mm^3 | Median Tumor Volume (A2780 tumors; Day 21): 1519.2 mm^3 | Median Tumor Volume (A2780 tumors; Day 23): 1666.0 mm^3 | Median Tumor Volume (A2780 tumors; Day 30): 2025.0 mm^3
